Data as given in patent publication US5292729A, “II-bond aromatic vitamin chelates” (Albion International, Inc., priority 1992, dated 1994).

Assays:
[1] = 65Zn level in blood of rats after oral gavage, scintillation count; conditions: oral 0.03 mg Zn, 15 μcuries 65Zn, mean ± standard deviation
Procedure: (§1) The chelate thus prepared was diluted such that a 5 μl dose contained about 0.03 mg Zn and 15 μcuries of ^65 Zn activity. This dose, when administered to a standard laboratory rat weighing 150±25 gms, closely approximates the RDA of 15 mg Zn for a human being weighing about 70 kg.
(§2) Ten Sprague Dawley rats, weighing 190±10 grams each were divided into two groups of five rats. Five rats were designated the test group and the other five rats the control group.
(§3) No surgery was performed as all animals were given light doses of nembutal (40 mg/kg) to improve ease of handling and minimize injury during lavage and bloodletting.
Beginning 30 minutes after dosing and continuing at 30 minute intervals up to a period of 3 hours following dosing, 0.1 ml of blood was withdrawn from rats in both the test and control groups. The blood was then analyzed for ^65 Zn by scintillation count.

[2] = 65Zn isotope levels in urine and tissues of sacrificed rats
Procedure: as §1, §2, §3
The rats used in Example 22 were sacrificed after completion of the testing and the urine, liver, muscle, kidney, brain and spleens from the animals in each grouping were collected for comparative ^65 zinc isotope levels.

Compound [Cl-].[Cl-].[Zn+2] [ZnCl2] has a 65Zn in blood ([1]; 0.5 hrs after dosing) of 210 ± 11 CCPM, a 65Zn in blood ([1]; 1.0 hrs after dosing) of 226 ± 14 CCPM and a 65Zn in blood ([1]; 1.5 hrs after dosing) of 212 ± 26 CCPM. It also gave a 65Zn in blood ([1]; 2.5 hrs after dosing) of 206 ± 8 CCPM, a 65Zn in blood ([1]; 3.0 hrs after dosing) of 207 ± 8 CCPM and a 65Zn in brain ([2]; brain, after 3 hour test) of 0 CCPM. It also gave a 65Zn in kidney ([2]; kidney, after 3 hour test) of 24 CCPM, a 65Zn in liver ([2]; liver, after 3 hour test) of 50 CCPM and a 65Zn in muscle ([2]; muscle, after 3 hour test) of 0 CCPM. The 65Zn in spleen ([2]; spleen, after 3 hour test) was 16 CCPM, the “excretion of zinc compared with the chelated form” value ([2]; urine) was “excreted more readily” and the 65Zn in urine ([2]; urine, after 3 hour test) was 38 CCPM.
